pEC50, pIC50, pKi: −log10 of the molar value.
How the values were obtained:
[1] = target: T1, Human rhinovirus A protease (Human rhinovirus sp., UniProt Q4U254); experiment: Antiviral activity against human rhinovirus-14 (HRV-14) 3C protease using enzyme assay; inactive; type: functional, rhinovirus B14
T1 sequence (Q4U254 whole entry): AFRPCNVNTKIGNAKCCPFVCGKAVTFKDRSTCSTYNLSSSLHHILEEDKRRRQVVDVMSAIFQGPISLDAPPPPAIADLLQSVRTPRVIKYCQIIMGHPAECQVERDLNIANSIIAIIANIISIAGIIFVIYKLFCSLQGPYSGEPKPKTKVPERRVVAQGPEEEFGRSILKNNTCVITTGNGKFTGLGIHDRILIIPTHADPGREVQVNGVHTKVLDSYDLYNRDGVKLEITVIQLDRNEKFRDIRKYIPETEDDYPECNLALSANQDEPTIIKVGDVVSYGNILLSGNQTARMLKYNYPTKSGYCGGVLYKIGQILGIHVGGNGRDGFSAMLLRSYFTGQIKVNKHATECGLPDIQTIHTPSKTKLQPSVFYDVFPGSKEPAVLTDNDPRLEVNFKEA

[2] = system: HeLa; experiment: Antiviral activity against human rhinovirus-16 (HRV-16) in HeLa-cells using cell assay; inactive; type: functional, cell-based
[3] = system: HeLa; experiment: Cytotoxicity against HeLa cells was determined by using XTT cytotoxicity assay; type: functional; details: Homo sapiens, read-out: TC50 (the source's name)
[4] = system: rhinovirus B14; experiment: (§1) Antiviral activity against human rhinovirus-14 (HRV-14) in HeLa-cells using cell assay; type: functional, organism-based, human rhinovirus type 14; details: Rhinovirus B
[5] = system: HeLa; experiment: as §1; type: functional, cell-based
[6] = target: T1, Human rhinovirus A protease; experiment: Antiviral activity against human rhinovirus-14 (HRV-14) 3C protease using enzyme assay; type: functional, rhinovirus B14
[7] = system: HeLa; experiment: Antiviral activity against human rhinovirus-16 (HRV-16) in HeLa-cells using cell assay; type: functional, cell-based

| Structure (SMILES) | Ki [1] | EC50 [2] | CC50 [3] [µM] | pEC50 [4] | pIC50 [5] | pKi [6] | pEC50 [7] | pIC50 [6] |
| --- | --- | --- | --- | --- | --- | --- | --- | --- |
| CCCC(NC(=O)C1(NC(=O)[C@@H](NC(=O)OC(C)C)C(C)C)CCCC1)C(=O)C(=O)N[C@@H](C)c1ccccc1 (some centres not stated) | Not Active | Not Active | > 100 | < 4.70 | – | – | – | – |
| CCC[C@H](NC(=O)[C@H](Cc1ccccc1)NC(=O)[C@@H](NC(=O)OC(C)C)C(C)C)C(=O)C(=O)NCc1ccccc1 | – | – | > 100 | 5.28 | 5.57 | 5.34 | – | – |
| CCCC(NC(=O)C(Cc1ccccc1)NC(=O)[C@@H](NC(=O)OC(C)C)C(C)C)C(=O)C(=O)N[C@@H](C)c1ccccc1 (some centres not stated) | – | – | 62 | 6.00 | – | 6.30 | 5.00 | – |
| CCC[C@H](NC(=O)[C@H](Cc1ccccc1)NC(=O)[C@@H](NC(=O)OC(C)(C)C)C(C)C)C(=O)C(=O)N[C@H](C)c1ccccc1 | – | – | 30.3 | 5.89 | – | 6.15 | – | – |
| CCC[C@H](NC(=O)[C@H](Cc1ccccc1)NC(=O)[C@@H](NC(=O)OC(C)C)C(C)C)C(=O)C(=O)N[C@@H](C)C1CCCCC1 | – | – | 54.6 | < 4.70 | – | 5.19 | – | – |
| CCC[C@H](NC(=O)[C@H](Cc1ccccc1)NC(=O)[C@@H](NC(=O)OC(C)C)C(C)C)C(=O)C(=O)N[C@@H](C)c1ccccc1 | – | – | > 100 | 6.07 | – | 6.77 | ~5.00 | 6.77 |
| CCC[C@H](NC(=O)[C@H](Cc1ccccc1)NC(=O)[C@@H](NC(=O)OC(C)(C)C)C(C)C)C(=O)N[C@@H](C)c1ccccc1 | – | – | > 100 | < 4.70 | – | 5.13 | – | – |
| CCCC(NC(=O)[C@@H]1[C@H]2CCC[C@H]2CN1C(=O)[C@@H](NC(=O)OC(C)C)C(C)C)C(=O)C(=O)N[C@@H](C)c1ccccc1 (some centres not stated) | – | – | 65.4 | 5.66 | – | 5.52 | ~5.00 | – |
| CCC[C@H](NC(=O)[C@H](Cc1ccccc1)NC(=O)[C@@H](NC(=O)OC(C)C)C(C)C)C(=O)C(=O)N[C@H](C)c1ccccc1 | – | – | – | 4.95 | – | 5.19 | – | – |
| CCCC(NC(=O)[C@@H]1[C@H]2CCC[C@H]2CN1C(=O)[C@@H](NC(=O)OC(C)C)C(C)(C)C)C(=O)C(=O)N[C@@H](C)c1ccccc1 (some centres not stated) | – | – | 57.8 | 5.11 | – | – | 4.59 | – |
| CCC[C@H](NC(=O)[C@H](Cc1ccccc1)NC(=O)[C@@H](NC(=O)OC(C)(C)C)C(C)C)C(=O)NC[C@H](C)c1ccccc1 | – | – | > 100 | < 4.82 | – | 4.54 | – | – |
| CCCC(NC(=O)C1CCCN1C(=O)[C@@H](NC(=O)OC(C)C)C(C)C)C(=O)C(=O)N[C@@H](C)c1ccccc1 (some centres not stated) | – | – | > 100 | 4.98 | – | 4.76 | 4.36 | – |
| CCCC(NC(=O)[C@@H]1[C@H]2CC[C@H](F)[C@H]2CN1C(=O)[C@@H](NC(=O)OC(C)C)C(C)C)C(=O)C(=O)N[C@@H](C)c1ccccc1 (some centres not stated) | – | – | 82 | 5.24 | – | 5.26 | – | – |
| CCCC(NC(=O)C(Cc1ccc(F)cc1)NC(=O)[C@@H](NC(=O)OC(C)C)C(C)C)C(=O)C(=O)N[C@@H](C)c1ccccc1 (some centres not stated) | – | – | > 100 | 5.68 | – | 5.87 | 4.43 | – |
| CCCC(NC(=O)[C@@H]1[C@H]2CC[C@H](F)[C@H]2CN1C(=O)[C@@H](NC(=O)OC(C)C)C(C)(C)C)C(=O)C(=O)N[C@@H](C)c1ccccc1 (some centres not stated) | – | – | 60.4 | 5.00 | – | 5.01 | – | – |

— ChEMBL document CHEMBL1136293, “Synthesis and evaluation of tripeptidyl alpha-ketoamides as human rhinovirus 3C protease inhibitors” (Bioorg Med Chem Lett, 2003)
